Data from patent US20250064799A1, “ORAL FORMULATIONS OF LEVOSIMENDAN FOR TREATING PULMONARY HYPERTENSION WITH HEART FAILURE WITH PRESERVED EJECTION FRACTION” (Tenax Therapeutics, Inc., priority 2021, published 2025).
Values joined by “and” are separate entries in the source; they are usually repeats but may differ in a detail not shown here. Equal entries are not always repeated.

Columns and labels:
[1] = test system: HFpEF patients; settings: inhaled 3 times a day for 4 weeks; cited from earlier work
[2] = test system: phosphodiesterase-3 (PDE3); settings: cited from earlier work
[3] = heart failure subjects; cited from earlier work
[4] = OR-1896 plasma concentration, I.V. to oral transition pharmacokinetic study; type: in vivo, human; settings: individual patients
Source text: FIGS. 6A-6W: Pharmacokinetic Data from the Levosimendan I.V. to Oral Transition Study. […] FIGS. 6D-6U show patient OR-1896 plasma concentrations (ng/ml, y-axis) for each patient in the I.V. to oral transition study. The respective patient number is indicated above each graph. FIG. 6V: Individual Patient Change in 6-minute walk distance (6MWD) at Week 6 (y-axis) by OR-1896 plasma concentration (Week 6) (x-axis). FIG. 6W: Individual Patient Change in Heart Rate (Week 0 to Week 6) (y-axis) by OR-1896 plasma concentration (Week 6) (x-axis).

[5] = test system: whole cardiomyocytes and isolated contractile apparatus preparations; settings: cited from earlier work
[6] = test system: PDE4; settings: cited from earlier work
[7] = test system: HFpEF, HFrEF, or PH-HFpEF patients; settings: empagliflozin alone; cited from earlier work
[8] = test system: patients with HFpEF; settings: long term treatment, 216 patients; cited from earlier work
[9] = test system: PH-HFpEF patients; settings: after 12 weeks, 52 patients; cited from earlier work
[10] = test system: HFpEF patients; settings: in vivo; cited from earlier work
[11] = test system: patients with PH-HFpEF; settings: in vivo; cited from earlier work
[12] = test system: patients with left heart disease; settings: in vivo; cited from earlier work
[13] = test system: PH-HFpEF patients; settings: in vivo; cited from earlier work

## O=NO [sodium nitrite]
[1]
  peak oxygen consumption during cardiopulmonary exercise (primary endpoint) and secondary endpoints: unable to demonstrate any improvement

## CC(=O)Nc1ccc(C2=NNC(=O)C[C@H]2C)cc1 [OR-1896, (R)—N-(4-(4-methyl-6-oxo-1,4,5,6-tetraihydropyridazin-3-yl)phenyl) acetamide]
[2]
  potency in inhibition of PDE3 relative to levosimendan: profoundly less potent
[3]
  half-life: 70 to 80 h
[4]; daily 3 mg oral levosimendan
  OR-1896 Plasma concentration, Week 6: 13.0 ng/mL and 8.44 ng/mL and 4.04 ng/mL and 8.73 ng/mL and 29.0 ng/mL and 8.15 ng/mL and 1.97 ng/mL and 13.4 ng/mL and 34.1 ng/mL and 7.72 ng/mL and 22.9 ng/mL and 16.5 ng/mL and 12.7 ng/mL and 21.9 ng/mL and 12.3 ng/mL and 5.15 ng/mL
[4]; oral levosimendan titration
  OR-1896 Plasma concentration, Week 4: 8.86 ng/mL and 6.14 ng/mL and 6.28 ng/mL and 1.39 ng/mL and 12.6 ng/mL and 11.6 ng/mL and 32.9 ng/mL and 7.96 ng/mL and 13.1 ng/mL and 6.50 ng/mL and 5.90 ng/mL
[4]; oral levosimendan, patients titrated at Week 6
  OR-1896 Plasma concentration, Week 8: 3.47 ng/ml and 38.7 ng/ml and 69.9 ng/ml and 2.93 ng/ml and 25.5 ng/ml (2×) and 10.9 ng/ml
[4]; weekly I.V. levosimendan
  OR-1896 Plasma concentration, Week 0: 4.46 ng/mL and 2.22 ng/mL and 0.730 ng/mL and 0.197 ng/mL and 12.2 ng/mL and 3.16 ng/mL and 0.787 ng/mL and 6.89 ng/mL and 36.1 ng/mL and 2.11 ng/mL and 0.00 ng/mL and 6.32 ng/mL and 2.81 ng/mL and 4.86 ng/mL and 3.77 ng/mL and 1.19 ng/mL
[5]
  inotropic effects relative to levosimendan: equipotent
[6]
  potency in inhibition of PDE4 relative to levosimendan: profoundly less potent

## OC[C@H]1O[C@@H](c2ccc(Cl)c(Cc3ccc(O[C@H]4CCOC4)cc3)c2)[C@H](O)[C@@H](O)[C@@H]1O [empagliflozin]
[7]
  change in exercise capacity as measured by 6MWD: did not demonstrate a material change

## CCCc1nn(C)c2c(=O)[nH]c(-c3cc(S(=O)(=O)N4CCN(C)CC4)ccc3OCC)nc12 [sildenafil]
[8]
  six-minute walk time, clinical status, or quality of life: failed to improve
[9]
  change in mPAP: no change

## COC(=O)Nc1c(N)nc(-c2nn(Cc3ccccc3F)c3ncc(F)cc23)nc1N [vericiguat]
[10]
  primary endpoints: no significant changes

## COc1ccccc1Oc1c(NS(=O)(=O)c2ccc(C(C)(C)C)cc2)nc(-c2ncccn2)nc1OCCO [bosentan]
[11]
  clinical outcomes versus placebo: worse clinical outcomes
  six minute walk test or echocardiographic evaluation of pulmonary hypertension: no improvements

## CCCNS(=O)(=O)Nc1ncnc(OCCOc2ncc(Br)cn2)c1-c1ccc(Br)cc1 [macitentan]
[12]
  hemodynamic parameters (pulmonary vascular resistance, mean pulmonary arterial pressure, pulmonary artery wedge pressure): no change

## COC(=O)N(C)c1c(N)nc(-c2nn(Cc3ccccc3F)c3ncccc23)nc1N [riociguat]
[13]
  mean pulmonary arterial pressure (primary outcome): primary outcome was not achieved
